Laboratory results reported in paper PMC9030254, “Target Hopping from Protein Kinases to PXR: Identification of Small-Molecule Protein Kinase Inhibitors as Selective Modulators of Pregnane X Receptor from TüKIC Library” (Cells, 2022).

How the values were obtained:
Assay in all cases: Kinase profiling
Assay type in all cases: biochemical
AuroraC = target: T1, AuroraC (Homo sapiens, UniProt Q9UQB9)
T1 construct: purchased ProQinase (Freiburg, Germany)
T1 sequence (Q9UQB9 1-309): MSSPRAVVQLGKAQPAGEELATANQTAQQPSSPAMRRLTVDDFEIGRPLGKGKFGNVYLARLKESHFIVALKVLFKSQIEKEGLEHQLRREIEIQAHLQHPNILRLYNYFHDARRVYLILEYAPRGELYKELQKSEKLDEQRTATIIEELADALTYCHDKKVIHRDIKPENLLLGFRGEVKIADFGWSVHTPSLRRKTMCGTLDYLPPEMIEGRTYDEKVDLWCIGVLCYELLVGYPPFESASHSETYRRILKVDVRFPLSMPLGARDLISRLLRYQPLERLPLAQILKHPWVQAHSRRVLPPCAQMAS
Description: (§1) The analysis was performed by ProQinase (Freiburg, Germany).

MYLK = target: T2, MYLK (Homo sapiens, UniProt Q15746)
T2 construct: purchased ProQinase (Freiburg, Germany)
Description: as §1

WNK1 = target: T3, WNK1 (Homo sapiens, UniProt Q9H4A3)
T3 construct: purchased ProQinase (Freiburg, Germany)
Description: as §1

CDK20/CycT1 = target: T4, CDK20/CycT1 (Homo sapiens, UniProt Q8IZL9)
T4 construct: purchased ProQinase (Freiburg, Germany)
Description: as §1

RAF1 YDYD = target: T5, RAF1 YDYD (Homo sapiens, UniProt P04049, Y340D/Y341D)
T5 construct: purchased ProQinase (Freiburg, Germany)
Description: as §1

PAK1 = target: T6, PAK1 (Homo sapiens, UniProt Q13153)
T6 construct: purchased ProQinase (Freiburg, Germany)
Description: as §1

PKMYT1 = target: T7, PKMYT1 (Homo sapiens, UniProt Q99640)
T7 construct: purchased ProQinase (Freiburg, Germany)
T7 sequence (Q99640 1-499): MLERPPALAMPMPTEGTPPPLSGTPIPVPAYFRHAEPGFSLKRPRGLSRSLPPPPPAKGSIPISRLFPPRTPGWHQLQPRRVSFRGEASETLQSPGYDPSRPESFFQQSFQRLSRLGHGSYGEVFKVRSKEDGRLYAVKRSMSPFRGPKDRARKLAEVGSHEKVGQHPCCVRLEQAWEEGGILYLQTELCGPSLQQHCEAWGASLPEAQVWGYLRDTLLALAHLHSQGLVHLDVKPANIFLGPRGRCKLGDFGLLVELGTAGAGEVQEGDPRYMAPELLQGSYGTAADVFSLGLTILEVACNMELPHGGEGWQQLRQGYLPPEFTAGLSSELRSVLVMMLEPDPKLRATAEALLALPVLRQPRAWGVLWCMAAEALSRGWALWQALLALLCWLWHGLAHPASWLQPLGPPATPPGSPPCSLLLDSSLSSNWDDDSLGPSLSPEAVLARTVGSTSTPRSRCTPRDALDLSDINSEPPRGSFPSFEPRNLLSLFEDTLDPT
Description: as §1

NEK11 = target: T8, NEK11 (Homo sapiens, UniProt Q8NG66)
T8 construct: purchased ProQinase (Freiburg, Germany)
T8 sequence (Q8NG66 1-645): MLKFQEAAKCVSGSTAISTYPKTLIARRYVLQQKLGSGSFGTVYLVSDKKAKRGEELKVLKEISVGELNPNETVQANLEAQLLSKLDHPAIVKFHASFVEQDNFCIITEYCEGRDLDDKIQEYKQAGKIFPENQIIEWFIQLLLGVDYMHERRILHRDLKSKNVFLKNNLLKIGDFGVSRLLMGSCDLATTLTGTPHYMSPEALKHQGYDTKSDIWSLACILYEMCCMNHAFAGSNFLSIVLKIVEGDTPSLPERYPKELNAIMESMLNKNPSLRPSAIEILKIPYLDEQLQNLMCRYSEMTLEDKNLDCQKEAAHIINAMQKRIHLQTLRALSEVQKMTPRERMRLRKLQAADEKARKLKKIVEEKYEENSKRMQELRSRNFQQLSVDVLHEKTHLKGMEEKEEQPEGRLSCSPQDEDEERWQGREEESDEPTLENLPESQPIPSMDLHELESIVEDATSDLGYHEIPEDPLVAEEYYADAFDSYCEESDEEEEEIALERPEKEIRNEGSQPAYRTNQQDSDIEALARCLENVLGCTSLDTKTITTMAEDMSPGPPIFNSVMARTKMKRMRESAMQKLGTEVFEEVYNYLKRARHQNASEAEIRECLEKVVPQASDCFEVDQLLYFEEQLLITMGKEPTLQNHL
Description: as §1

ACVR2A = target: T9, ACVR2A (Homo sapiens, UniProt P27037)
T9 construct: purchased ProQinase (Freiburg, Germany)
Description: as §1

WNK3 = target: T10, WNK3 (Homo sapiens, UniProt Q9BYP7)
T10 construct: purchased ProQinase (Freiburg, Germany)
Description: as §1

T10 sequence (Q9BYP7 whole entry): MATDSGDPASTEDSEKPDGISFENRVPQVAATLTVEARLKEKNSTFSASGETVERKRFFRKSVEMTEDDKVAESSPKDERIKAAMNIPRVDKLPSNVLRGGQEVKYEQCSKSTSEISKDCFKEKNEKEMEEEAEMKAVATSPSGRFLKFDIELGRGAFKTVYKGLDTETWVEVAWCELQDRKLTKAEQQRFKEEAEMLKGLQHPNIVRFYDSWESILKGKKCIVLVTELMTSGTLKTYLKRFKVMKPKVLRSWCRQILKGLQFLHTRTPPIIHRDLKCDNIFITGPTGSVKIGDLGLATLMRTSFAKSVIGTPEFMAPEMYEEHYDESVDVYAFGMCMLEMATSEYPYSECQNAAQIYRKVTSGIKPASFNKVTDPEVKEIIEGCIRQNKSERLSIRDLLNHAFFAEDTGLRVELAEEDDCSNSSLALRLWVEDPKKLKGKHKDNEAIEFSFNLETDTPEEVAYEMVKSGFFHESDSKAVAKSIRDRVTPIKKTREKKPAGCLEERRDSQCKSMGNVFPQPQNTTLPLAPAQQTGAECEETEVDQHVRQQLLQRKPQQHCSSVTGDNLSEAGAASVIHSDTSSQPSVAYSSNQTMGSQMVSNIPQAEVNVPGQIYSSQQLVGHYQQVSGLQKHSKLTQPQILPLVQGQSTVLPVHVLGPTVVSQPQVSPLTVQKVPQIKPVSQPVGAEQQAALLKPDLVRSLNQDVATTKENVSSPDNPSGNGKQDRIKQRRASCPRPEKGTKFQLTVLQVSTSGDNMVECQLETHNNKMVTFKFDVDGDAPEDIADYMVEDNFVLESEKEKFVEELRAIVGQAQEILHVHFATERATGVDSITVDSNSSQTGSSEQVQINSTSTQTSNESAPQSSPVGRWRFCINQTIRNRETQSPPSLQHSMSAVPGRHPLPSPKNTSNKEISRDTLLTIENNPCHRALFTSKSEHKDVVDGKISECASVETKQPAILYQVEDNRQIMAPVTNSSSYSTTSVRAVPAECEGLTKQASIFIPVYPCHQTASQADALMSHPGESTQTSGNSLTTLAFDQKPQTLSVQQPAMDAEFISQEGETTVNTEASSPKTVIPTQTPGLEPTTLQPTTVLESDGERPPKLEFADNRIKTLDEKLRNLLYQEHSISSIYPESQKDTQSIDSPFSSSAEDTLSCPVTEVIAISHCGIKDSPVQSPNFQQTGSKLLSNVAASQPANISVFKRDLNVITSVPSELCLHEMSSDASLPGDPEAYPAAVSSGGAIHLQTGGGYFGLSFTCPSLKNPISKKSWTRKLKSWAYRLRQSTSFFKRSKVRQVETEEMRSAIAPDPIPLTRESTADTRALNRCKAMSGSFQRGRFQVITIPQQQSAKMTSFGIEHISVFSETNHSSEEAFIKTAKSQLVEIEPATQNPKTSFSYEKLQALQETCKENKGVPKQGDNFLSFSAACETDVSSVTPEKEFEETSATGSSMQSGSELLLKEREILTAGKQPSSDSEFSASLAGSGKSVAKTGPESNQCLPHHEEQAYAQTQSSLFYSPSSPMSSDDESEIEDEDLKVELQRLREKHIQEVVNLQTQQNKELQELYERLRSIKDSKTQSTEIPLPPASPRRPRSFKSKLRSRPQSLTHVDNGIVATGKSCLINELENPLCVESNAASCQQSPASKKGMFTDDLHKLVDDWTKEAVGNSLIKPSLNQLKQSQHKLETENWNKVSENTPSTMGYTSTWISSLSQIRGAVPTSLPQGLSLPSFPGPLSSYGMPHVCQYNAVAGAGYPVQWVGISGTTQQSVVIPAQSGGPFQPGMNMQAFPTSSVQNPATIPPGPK
T2 sequence (Q15746 whole entry): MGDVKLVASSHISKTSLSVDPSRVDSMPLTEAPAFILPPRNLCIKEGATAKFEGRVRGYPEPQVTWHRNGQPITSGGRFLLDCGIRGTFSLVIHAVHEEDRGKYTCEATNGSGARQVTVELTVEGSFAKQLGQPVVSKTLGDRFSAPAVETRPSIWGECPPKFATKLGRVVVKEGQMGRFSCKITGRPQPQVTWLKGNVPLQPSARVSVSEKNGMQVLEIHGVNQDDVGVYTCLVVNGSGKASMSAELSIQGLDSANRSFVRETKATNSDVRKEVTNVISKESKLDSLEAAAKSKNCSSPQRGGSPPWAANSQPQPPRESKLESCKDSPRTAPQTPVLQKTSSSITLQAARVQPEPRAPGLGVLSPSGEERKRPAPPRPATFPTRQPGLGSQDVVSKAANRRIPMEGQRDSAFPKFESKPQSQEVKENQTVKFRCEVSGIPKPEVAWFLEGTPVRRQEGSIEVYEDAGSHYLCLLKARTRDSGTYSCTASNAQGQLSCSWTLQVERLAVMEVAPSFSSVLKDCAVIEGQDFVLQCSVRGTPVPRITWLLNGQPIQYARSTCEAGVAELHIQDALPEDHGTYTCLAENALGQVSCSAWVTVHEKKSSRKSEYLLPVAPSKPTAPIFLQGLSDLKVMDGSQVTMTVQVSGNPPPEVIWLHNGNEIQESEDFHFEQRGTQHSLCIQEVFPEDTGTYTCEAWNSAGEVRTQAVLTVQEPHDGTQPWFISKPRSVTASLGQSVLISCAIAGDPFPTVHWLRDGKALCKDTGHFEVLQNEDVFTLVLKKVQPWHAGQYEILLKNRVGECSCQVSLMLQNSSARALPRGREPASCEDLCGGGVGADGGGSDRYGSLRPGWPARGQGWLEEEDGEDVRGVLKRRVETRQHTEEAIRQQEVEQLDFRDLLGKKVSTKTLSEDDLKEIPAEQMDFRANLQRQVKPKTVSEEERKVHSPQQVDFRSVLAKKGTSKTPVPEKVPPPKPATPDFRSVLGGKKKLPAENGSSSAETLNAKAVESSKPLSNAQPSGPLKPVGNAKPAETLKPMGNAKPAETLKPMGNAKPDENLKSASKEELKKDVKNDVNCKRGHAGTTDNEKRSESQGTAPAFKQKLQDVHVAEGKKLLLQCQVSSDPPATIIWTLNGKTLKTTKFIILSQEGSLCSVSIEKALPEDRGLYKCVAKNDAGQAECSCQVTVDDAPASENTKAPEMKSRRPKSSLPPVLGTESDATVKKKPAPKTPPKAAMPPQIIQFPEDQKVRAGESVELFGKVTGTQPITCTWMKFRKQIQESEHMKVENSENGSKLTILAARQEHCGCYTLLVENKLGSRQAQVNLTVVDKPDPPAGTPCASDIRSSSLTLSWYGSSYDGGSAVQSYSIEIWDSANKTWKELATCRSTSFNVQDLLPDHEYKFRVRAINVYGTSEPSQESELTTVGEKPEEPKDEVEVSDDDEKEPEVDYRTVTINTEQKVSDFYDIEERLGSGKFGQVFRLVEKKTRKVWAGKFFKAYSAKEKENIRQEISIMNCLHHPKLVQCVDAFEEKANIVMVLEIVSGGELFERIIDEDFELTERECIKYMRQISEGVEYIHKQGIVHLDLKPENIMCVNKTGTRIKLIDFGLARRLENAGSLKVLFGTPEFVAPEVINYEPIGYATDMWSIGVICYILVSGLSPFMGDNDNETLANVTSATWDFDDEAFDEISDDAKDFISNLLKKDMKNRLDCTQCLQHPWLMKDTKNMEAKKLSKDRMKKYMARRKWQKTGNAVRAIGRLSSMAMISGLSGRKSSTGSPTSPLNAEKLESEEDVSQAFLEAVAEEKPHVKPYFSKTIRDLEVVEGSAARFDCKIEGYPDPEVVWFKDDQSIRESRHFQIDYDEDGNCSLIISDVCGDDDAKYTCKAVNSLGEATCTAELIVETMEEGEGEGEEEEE
T4 sequence (Q8IZL9 whole entry): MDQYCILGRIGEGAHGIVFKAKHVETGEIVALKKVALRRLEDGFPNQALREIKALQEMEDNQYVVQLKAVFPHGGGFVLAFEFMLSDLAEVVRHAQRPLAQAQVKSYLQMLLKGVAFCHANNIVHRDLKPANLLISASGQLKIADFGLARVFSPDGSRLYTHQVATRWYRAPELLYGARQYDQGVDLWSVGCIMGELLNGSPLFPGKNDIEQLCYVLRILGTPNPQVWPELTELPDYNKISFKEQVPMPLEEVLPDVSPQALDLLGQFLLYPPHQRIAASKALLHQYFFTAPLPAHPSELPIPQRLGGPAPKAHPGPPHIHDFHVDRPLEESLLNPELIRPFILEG
T4 sequence (O60563 whole entry partner): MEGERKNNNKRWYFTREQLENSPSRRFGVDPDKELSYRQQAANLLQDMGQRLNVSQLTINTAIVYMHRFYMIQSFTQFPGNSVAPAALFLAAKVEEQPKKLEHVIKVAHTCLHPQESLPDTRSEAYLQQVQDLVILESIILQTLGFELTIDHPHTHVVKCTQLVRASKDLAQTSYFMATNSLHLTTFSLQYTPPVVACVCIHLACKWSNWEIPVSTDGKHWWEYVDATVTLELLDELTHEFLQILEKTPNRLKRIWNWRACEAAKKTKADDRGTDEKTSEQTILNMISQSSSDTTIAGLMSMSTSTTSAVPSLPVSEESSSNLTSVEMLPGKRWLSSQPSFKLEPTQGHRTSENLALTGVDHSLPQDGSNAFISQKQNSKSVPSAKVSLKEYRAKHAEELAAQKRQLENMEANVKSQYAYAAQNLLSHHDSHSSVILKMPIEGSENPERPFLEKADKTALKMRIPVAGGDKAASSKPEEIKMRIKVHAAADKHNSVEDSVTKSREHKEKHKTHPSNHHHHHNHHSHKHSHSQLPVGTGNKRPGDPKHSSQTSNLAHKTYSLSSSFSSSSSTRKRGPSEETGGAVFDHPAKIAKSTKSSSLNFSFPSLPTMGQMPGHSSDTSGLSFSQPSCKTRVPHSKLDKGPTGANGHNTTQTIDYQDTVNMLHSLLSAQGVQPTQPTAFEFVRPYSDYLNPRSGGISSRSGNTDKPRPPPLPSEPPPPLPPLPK

| Structure (SMILES) | Residual activity (AuroraC; 1.0E-05 M) | Residual activity (AuroraC; 1.0E-06 M) | Residual activity (MYLK; 1.0E-05 M) | Residual activity (MYLK; 1.0E-06 M) | Residual activity (WNK1; 1.0E-05 M) | Residual activity (WNK1; 1.0E-06 M) | Residual activity (CDK20/CycT1; 1.0E-05 M) | Residual activity (CDK20/CycT1; 1.0E-06 M) | inhibition at 10 µM (RAF1 YDYD) [%] | Residual activity (RAF1 YDYD; 1.0E-05 M) | Residual activity (RAF1 YDYD; 1.0E-06 M) | Residual activity (PAK1; 1.0E-05 M) | Residual activity (PAK1; 1.0E-06 M) | Residual activity (PKMYT1; 1.0E-05 M) | Residual activity (PKMYT1; 1.0E-06 M) | Residual activity (NEK11; 1.0E-05 M) | Residual activity (NEK11; 1.0E-06 M) | Residual activity (ACVR2A; 1.0E-05 M) | Residual activity (ACVR2A; 1.0E-06 M) | Residual activity (WNK3; 1.0E-05 M) | other results |
| --- | --- | --- | --- | --- | --- | --- | --- | --- | --- | --- | --- | --- | --- | --- | --- | --- | --- | --- | --- | --- | --- |
| O=C(Cc1ccccc1)Nc1ccc(F)c(Nc2ccc3c(c2)CCCCC3=O)c1 [Compound 100] | 101 % of control | 110 % of control | 78 % of control | 92 % of control | 97 % of control | 99 % of control | 92 % of control | 98 % of control | ≥ 50 | 3 % of control | 14 % of control | 88 % of control | 87 % of control | 93 % of control | 102 % of control | 110 % of control | 97 % of control | 95 % of control | 89 % of control | 109 % of control | inhibition of RAF1 (RAF1 YDYD; 1 µM): inhibited considerably; Residual activity (WNK3; 1.0E-06 M): 107 % of control |
| O=C(Nc1ccc(F)c(Nc2ccc3c(c2)CCCCC3=O)c1)c1cccc(F)c1 [Compound 109] | 101 % of control | 99 % of control | 64 % of control | 81 % of control | 94 % of control | 93 % of control | 101 % of control | 96 % of control | ≥ 50 | 12 % of control | 36 % of control | 80 % of control | 84 % of control | 95 % of control | 98 % of control | 104 % of control | 86 % of control | 108 % of control | 99 % of control | 104 % of control | inhibition at 1 µM (RAF1 YDYD; 1 µM): ≥ 50%; Residual activity (WNK3; 1.0E-06 M): 93 % of control |
